One may read the logP as a log measure of how a compound divides between an organic and an aqueous phase. Read a high logP as higher lipophilicity. The pKa is the pH at which an ionisable group is half protonated. Read a low pKa as a stronger acid or weaker base.

A short description of the first series: physchem. The class given is physicochemical. The conditions noted are these: pH 8. From the text:
One of ordinary skill will recognize that log P is a guideline tool for assessing amine candidates, since actual migration to the clear coat layer or retention within the aqueous 1K basecoat layer will be dependent upon the nature of the solvent base of the clear coat and other factors including the influence of other additives commonly present in the composition of both layers.
In one aspect of the first embodiment, the secondary amine may be a dialkyl amine.
In turn, `CCNC(C)C` [ethyl isopropyl amine] yielded a lipophilicity (logP) of 0.93.
The same measure, in the same setting: the figure for `CCCCNCCCC` [di-n-butyl amine] is approximately 2.8; for `CCCNCCC` [di-n-propyl amine] it is approximately 1.6.

The next series in a line: physchem.
Conditions: not given
From the text: The availability of the base electron pair is influenced by the steric environment presented by the groups (R′, R″ and CH2OH) bonded to the N and any electronic influence of those same groups.
Turning to `CC(C)(N)CO` [AMP, 2-amino-2-methyl-1-propanol, reference compound], the pKa came out at 9.8.
On the same count and under the same terms, the figure for `C1CCNC1` [pyrrolidine] is 10.6; for `CC(C)N(CO)C(C)C` [methylol adduct of diisopropylamine] it is 9.0; for `OCN1CCCCC1` [methylol adduct of piperidine] it is 9.2.
On the same count and under the same terms, the figure for `CCCN(CO)CCC` [methylol adduct of di-n-propyl amine] is 8.01.
Same read-out and setting: the figure for `CCCNCCC` [di-n-propyl amine] is 10.9; for `OCN1CCCC1` [methylol adduct of pyrrolidine] it is 8.9.
The molecule `CN(C)CCO` [DMEOA, N,N-dimethylethanolamine, reference compound] displayed a pKa of 9.2.
Still for that read-out and setting: the figure for `CCN(CC)CO` [methylol adduct of diethylamine] is 8.9.

For the origin of these results see patent US11583890B2, “Low temperature curing 1K basecoat and method to coat a substrate with the 1K basecoat” (BASF Coatings GmbH, priority 2017, dated 2023).
